Experimental data: patent US20240182513A1, “SEPARATION OF METAL IONS FROM A SAMPLE USING GLYCOLIPIDS” (ARIZONA BOARD OF REGENTS ON BEHALF OF THE UNIVERSITY OF …, priority 2021, published 2024)

What was measured:
[1] = Example 2.2 glycolipid facilitated chemical precipitation: lead; settings: for Pb^2+ maximum removal: precipitation without further treatment, maximum over molar ratios
Protocol: (§1) Nine different structural variants were selected to examine the effect of the headgroup and number and length of the hydrophobic tail(s) on glycolipids as a chemical precipitant (Table 6). These solutions were made in advance and stored at 4° C. for up to one month and brought to room temperature (˜25° C.) before each experiment.
(§2) Each metal (Pb^2+, La^3+, and Mg^2+) was evaluated separately with each of the nine glycolipids. […] The reactions were mixed in the order of nanopure water (≥18 MΩ-cm), glycolipid solution, then metal solution. The metal and glycolipid solutions were continuously stirred as they were aliquoted into the reaction tubes. All experiments were performed in triplicate.
(§3) The reaction tubes were rotated overnight (16 to 24 h) and then three samples were collected from each tube to measure metal removal from solution: (1) no further treatment; (2) an additional filtration step; and (3) an additional centrifugation step. Briefly, for the glycolipid adsorption treatment samples all tubes were vortexed for approximately 5 sec immediately before sampling to ensure that non-adsorbed glycolipid-metal complexes were mixed into the solution column. After mixing, 0.1 ml of the reaction solution was aliquoted into a dilution tube of 2% trace metal grade nitric acid for analysis. This sample measures the loss of metal due to the formation of hydrophobic scums or adsorbed complexes not attributable to the subsequent filtration or centrifugation treatments.
Samples for the filtration treatment were vortexed for 5 sec, then a 0.6 ml aliquot was collected with a 1 ml syringe. A GHP acrodisc disk filter (hydrophilic polypropylene membrane, 0.45 µm pore size, 25 mm disc diameter) from Pall Life Sciences (Port Washington, New York) or PTFE disk filters (hydrophobic polytetrafluoroethylene membrane, 0.45 μm pore size, 25 mm disc diameter) from Fisher Scientific (Waltham, MA) was then placed onto the end of the syringe and approximately 0.1 ml of filtrate was collected into a dilution tube for analysis. The centrifuge sample was collected by centrifuging the remaining reaction solution at 10,000 RCF for 15 min. Approximately 0.1 ml of the supernatant was aliquoted into a dilution tube for analysis. Following collection, the metal content in all samples was analyzed at the Arizona Laboratory for Emerging Contaminants (ALEC) at the University of Arizona using inductively coupled plasma mass spectrometry.
(§4) R was determined by comparing the solution metal concentration of the treatment sample (Cnt for the glycolipid with no further treatment sample, Cf for the glycolipid and filtration sample, and Cc for the glycolipid and centrifugation sample) to the solution metal concentration of a glycolipid-free control (Ci) that underwent the same handling and processing steps. The equations for these calculations are shown below: […]

[2] = Example 2.2 glycolipid facilitated chemical precipitation: lanthanum
Protocol: as §1, §2
as §3, with “This sample measures the loss of metal due to the formation of hydrophobic scums or adsorbed complexes not attributable to the subsequent filtration or centrifugation treatments.” left out
(§5) Samples for the filtration treatment were vortexed for 5 sec, then a 0.6 ml aliquot was collected with a 1 ml syringe. […] Following collection, the metal content in all samples was analyzed at the Arizona Laboratory for Emerging Contaminants (ALEC) at the University of Arizona using inductively coupled plasma mass spectrometry.
as §4, with “steps.” for “steps. The equations for these calculations are shown below:”

[3] = Example 2.2 glycolipid facilitated chemical precipitation: magnesium
Protocol: as §1, with “Surfactants: Each of the solutions were made by dissolving a single glycolipid (GlycoSurf Inc., Salt Lake City, >95% purity) in nanopure water (≥18 MΩ-cm) then adjusting the pH to 6.90±0.05 with HNO3 and NaOH. Nine” for “Nine”
Metals: Three metals were tested for binding with the glycolipids: lead as […] (Fisher Scientific, Waltham, MA, 99% purity), lanthanum as La(NO3)3 6(H2O) (Sigma-Aldrich, St. Louis, MO, 99.99% purity), and magnesium as Mg(NO3)2 6(H2O) (Sigma-Aldrich, St. Louis, MO, 99% purity. Metal solutions (5 mM) were made using nanopure water (≥18 MΩ-cm) and were not pH balanced.
Each metal (Pb^2+, La^3+, and Mg^2+) was evaluated separately with each of the nine glycolipids. […]
as §5
as §4, with “Calculations: The efficiency of metal removal (R) was determined for each of the three treatments: Ra for the active mixing/adsorption treatment, Rf for the glycolipid and filtration treatment, and Rc for the glycolipid and centrifugation treatment. R” for “R”, “steps.” for “steps. The equations for these calculations are shown below:”

[4] = precipitation without further treatment, 5:1 ratio
[5] = precipitation without further treatment, molar ratio not stated
[6] = precipitation followed by centrifugation, molar ratio not stated / over ratios

Structure (SMILES): CCCCCCCCCCCC(CC(=O)O)OC1O[C@H](CO)[C@H](O)[C@H](O)[C@H]1O (some centres unmarked) [Gal-C14]
- Pb^2+ maximum removal [1]: 1.5%
- La^3+ removal [2, 4]: 57.9%
- Mg^2+ removal [3, 4]: 11.6%

Structure (SMILES): CCCCCCCCCCCC(CC(=O)O)OC(=O)CC(CCCCCCCCCCC)OC1OC[C@@H](O)[C@H](O)[C@H]1O (some centres unmarked) [Xyl-C14-C14]
- Pb^2+ maximum removal [1]: approximately 30%
- Mg^2+ removal [3, 5]: 17.1%

Structure (SMILES): CCCCCCCCCCCC(CC(=O)O)OC1OC[C@@H](O)[C@H](O)[C@H]1O (some centres unmarked) [Xyl-C14]
- Pb^2+ maximum removal [1]: < 7%
- La^3+ removal [2, 5]: 42.6%

Structure (SMILES): CCCCCCCC(CC(=O)O)OC1OC[C@@H](O)[C@H](O)[C@H]1O (some centres unmarked) [Xyl-C10]
- Pb^2+ removal [1, 6]: ≤ 30%
- Pb^2+ maximum removal [1]: approximately 30%
- La^3+ removal [2, 6]: ≤ 30%
- Mg^2+ removal [3, 6]: ≤ 30%
